Test results from PubChem BioAssay AID256 (DTP/NCI, 2004).
Toxic doses and inconclusive results are not listed.

Tested on: CD2F1 mice, L1210 leukemia ip, survival T/C
Assay: NCI In Vivo Anticancer Drug Screen. Data for tumor model L1210 Leukemia (intraperitoneal) in CD2F1 (CDF1) mice
Conditions: higher = longer survival
How it was run: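 Ratio T/C, where T is the treated-group value and C the vehicle-dosed control value, from mice implanted with a transplantable tumor.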

[1] = endpoint: mean survival time, dose: 100.0 mg/kg/injection, schedule: Q01DX009 (ip), vehicle: saline with Tween-80
[2] = endpoint: mean survival time, dose: 200.0 mg/kg/injection, schedule: Q01DX009 (ip), vehicle: saline with Tween-80
[3] = endpoint: mean survival time, dose: 400.0 mg/kg/injection, schedule: Q01DX009 (ip), vehicle: saline with Tween-80
[4] = endpoint: mean survival time, dose: 100.0 mg/kg/injection, schedule: Q04DX002 (ip), vehicle: saline with Tween-80
[5] = endpoint: mean survival time, dose: 200.0 mg/kg/injection, schedule: Q04DX002 (ip), vehicle: saline with Tween-80

Structure (SMILES): CCCCC(CCCC)CS(=O)[O-].[C-]#[O+].[C-]#[O+].[Fe+6].[c-]1[c-][c-][cH-][c-]1
- T/C (endpoint: mean survival time, dose: 25.0 mg/kg/injection, schedule: Q04DX002 (ip), vehicle: saline): 102 % of control
- T/C (endpoint: mean survival time, dose: 50.0 mg/kg/injection, schedule: Q04DX002 (ip), vehicle: saline): 87 % of control
- T/C (endpoint: mean survival time, dose: 100.0 mg/kg/injection, schedule: Q04DX002 (ip), vehicle: saline): 106 % of control

Structure (SMILES): CC(CN(C)C)CN1c2ccccc2Sc2ccc(C(F)(F)F)cc21 (stereo unspecified)
- T/C (endpoint: mean survival time, dose: 0.63 mg/kg/injection, schedule: Q04DX003 (ip), vehicle: saline): 94 % of control
- T/C (endpoint: mean survival time, dose: 1.25 mg/kg/injection, schedule: Q04DX003 (ip), vehicle: saline): 96 % of control
- T/C (endpoint: mean survival time, dose: 2.5 mg/kg/injection, schedule: Q04DX003 (ip), vehicle: saline): 91 % of control
- T/C (endpoint: mean survival time, dose: 6.25 mg/kg/injection, schedule: Q01DX009 (ip), vehicle: saline): 91 % of control
- T/C (endpoint: mean survival time, dose: 12.5 mg/kg/injection, schedule: Q01DX009 (ip), vehicle: saline): 102 % of control

Structure (SMILES): NC1=NC2OC(CO)C(O)C2O1 (stereo unspecified)
- T/C [1]: 105 % of control
- T/C [2]: 100 % of control
- T/C [3]: 102 % of control
- T/C (endpoint: median survival time, dose: 100.0 mg/kg/injection, schedule: Q04DX003 (ip), vehicle: saline with Tween-80): 100 % of control
- T/C (endpoint: median survival time, dose: 200.0 mg/kg/injection, schedule: Q04DX003 (ip), vehicle: saline with Tween-80): 100 % of control
- T/C (endpoint: median survival time, dose: 400.0 mg/kg/injection, schedule: Q04DX003 (ip), vehicle: saline with Tween-80): 100 % of control

Structure (SMILES): C=C(C)C1(Cc2ccccc2)C(=O)NC(=S)NC1=O
- T/C (endpoint: mean survival time, dose: 5.0 mg/kg/injection, schedule: Q01DX001 (ip), vehicle: saline): 102 % of control
- T/C (endpoint: mean survival time, dose: 10.0 mg/kg/injection, schedule: Q01DX001 (ip), vehicle: saline): 102 % of control
- T/C (endpoint: mean survival time, dose: 20.0 mg/kg/injection, schedule: Q01DX001 (ip), vehicle: saline): 104 % of control

Structure (SMILES): O=C(c1ccccc1)N(C(=O)c1ccccc1)c1cccc(N(C(=O)c2ccccc2)C(=O)c2ccccc2)n1
- T/C (endpoint: mean survival time, dose: 50.0 mg/kg/injection, schedule: Q04DX002 (ip), vehicle: saline with Tween-80): 101 % of control
- T/C [4]: 97 % of control
- T/C [5]: 93 % of control

Structure (SMILES): N/N=C(/C(=O)c1ccccc1)c1ccccc1
- T/C [1]: 95 % of control
- T/C [2]: 97 % of control
- T/C [3]: 95 % of control

Structure (SMILES): O=C1OC(/C=C\c2ccccc2)=NC/1=C\c1cc(Br)cc(Br)c1O
- T/C [4]: 94 % of control
- T/C [5]: 98 % of control
- T/C (endpoint: mean survival time, dose: 400.0 mg/kg/injection, schedule: Q04DX002 (ip), vehicle: saline with Tween-80): 105 % of control

Structure (SMILES): CN(C)N=Nc1ccc(Cl)cc1
- T/C (endpoint: mean survival time, dose: 79.0 mg/kg/injection, schedule: Q01DX009 (ip), vehicle: Klucel (hydroxypropylcellulose) (HPC)): 111 % of control
- T/C (endpoint: mean survival time, dose: 118.0 mg/kg/injection, schedule: Q01DX009 (ip), vehicle: Klucel (hydroxypropylcellulose) (HPC)): 119 % of control

Structure (SMILES): CC=C1C=C(C(C)(C)C)C(=O)C(C(C)(C)C)=C1
- T/C (endpoint: mean survival time, dose: 25.0 mg/kg/injection, schedule: Q01DX009 (ip), vehicle: Klucel (hydroxypropylcellulose) (HPC)): 90 % of control
- T/C (endpoint: mean survival time, dose: 50.0 mg/kg/injection, schedule: Q01DX009 (ip), vehicle: Klucel (hydroxypropylcellulose) (HPC)): 102 % of control
- T/C (endpoint: mean survival time, dose: 100.0 mg/kg/injection, schedule: Q01DX009 (ip), vehicle: Klucel (hydroxypropylcellulose) (HPC)): 98 % of control

Structure (SMILES): CC(C)OC(=O)Nc1cc(F)c(F)cc1F
- T/C [1]: 103 % of control
- T/C [2]: 103 % of control
- T/C [3]: 103 % of control

Structure (SMILES): CCCCN1CCNCC1
- T/C (endpoint: mean survival time, dose: 100.0 mg/kg/injection, schedule: Q04DX003 (ip), vehicle: saline): 93 % of control
- T/C (endpoint: mean survival time, dose: 200.0 mg/kg/injection, schedule: Q04DX003 (ip), vehicle: saline): 94 % of control

Structure (SMILES): CCC(O)(CC)c1ccc2ncccc2c1
- T/C (endpoint: mean survival time, dose: 75.0 mg/kg/injection, schedule: Q04DX003 (ip), vehicle: saline): 98 % of control
- T/C (endpoint: mean survival time, dose: 150.0 mg/kg/injection, schedule: Q04DX003 (ip), vehicle: saline): 97 % of control
- T/C (endpoint: mean survival time, dose: 300.0 mg/kg/injection, schedule: Q04DX003 (ip), vehicle: saline): 98 % of control

Structure (SMILES): C=CC1OC2CCCCC2O1 (stereo unspecified)
- T/C (endpoint: mean survival time, dose: 100.0 mg/kg/injection, schedule: Q01DX001 (ip), vehicle: acetone): 104 % of control

Structure (SMILES): CN(CCCCl)CCCCl
- T/C (endpoint: mean survival time, dose: 75.0 mg/kg/injection, schedule: Q01DX001 (ip), vehicle: saline): 103 % of control
